Measured values taken from patent EP0143109A1, “Pranoprofen gelled ointment” (priority 1983, dated 1985).

How the values were obtained:
[1] = Percutaneous absorption and excretion (Experiment 8); conditions: after removing the unabsorbed ointment 6 hours after application
[2] = rat, in vivo

half-life of blood level [1]: about 5 hours
excretion route [2]: excreted mainly into urine and feces
Compound: CC(C(=O)O)c1ccc2c(c1)Cc1cccnc1O2 (centres unmarked) [pranoprofen, Pranoprofen]
